The source of these data is patent US7192591B2, “Pharmaceutical composition comprising an extract of Elfvingia applanata for the prevention and the treatment of diabetes and diabetic complications” (priority 2002, dated 2007).

Assay [1] concerns STZ-diabetic rats. In words: Plasma glucose content in STZ-diabetic rats after 2 weeks of oral dosing. Format: in vivo, Sprague-Dawley (SD) rats. Conditions: 200 mg/kg/day intragastric. The method, then:
All experiments were performed on Sprague-Dawley (SD) rats aged 10 weeks, weighed 200-250 g and purchased from the Seoul national university. The animals were acclimatized for 1-2 weeks before being used for the experiments. Standard pelleted diet and water were given ad libitum. Animals were maintained under constant 12 hours light and dark cycle and an environmental temperature ranging from 21 to 23° C. Diabetes mellitus was induced in male SD rats, weighing 220-250 g, by a single intraperitoneal injection of strptozotocin (Sigma chemical CO., St. Louis, Mo., USA) dissolved in phosphate buffered saline acidified to pH 4.5 with 0.05 M citric acid (66 mg/kg body wt). Control rats were injected with the vehicle only. The animals were fed standard Lab. Chows and water ad. Lib. throughout the experiments. Two weeks later, the diabetes-induced rats were used in following experiments. […] extracts were suspended in saline containing 0.5% carboxymethyl cellulose. The animals were then sacrificed under ether anesthesia and their blood samples were collected. Plasma glucose levels were determined by using a commercial kit.

The target of assay [2] is T1, rat lenses aldose reductase (Rattus norvegicus, UniProt P07943).
T1 construct: The supernatant fraction of the rat lens homogenate was prepared according to the procedure described in the literature; from tissue; host or cells: lenses of Sprague-Dawley rats
In words: Rat lens aldose reductase inhibition (NADPH decrease at 340 nm, DL-glyceraldehyde substrate). Format: biochemical, Sprague-Dawley rats. Here is the method: Crude aldose reductase was prepared as follows: rat lenses were removed from Sprague-Dawley rats weighing 250˜280 g and frozen until use. […] Partially purified enzyme having its a specific activity of 6.5 U/mg was routinely used to test enzyme inhibition. The partially purified material was separated into 1.0 ml of aliquots and stored at −40° C.
Each 1.0 ml of cuvette containing equal units of enzyme, 0.1M sodium phosphate buffer (pH 6.2), 0.3 mM NADPH with or without 10 mM substrate and inhibitor was prepared.

The test system of assay [3] is STZ-diabetic rats. Nature of the assay: Sorbitol accumulation in red blood cell, lenses and sciatic nerves of STZ-diabetic rats. Format: in vivo, SD rats. Conditions: 2 weeks. Here is the method: Diabetes mellitus was induced in male SD rats, weighing 220-250 g, by a single intraperitoneal injection of strptozotocin (Sigma chemical CO., St. Louis, Mo., USA) dissolved in phosphate buffered saline acidified to pH 4.5 with 0.05 M citric acid (66 mg/kg body wt). Control rats were injected with the vehicle only. The animals were fed standard Lab. Chows and water ad. Lib. throughout the experiments. Two weeks later, the diabetes-induced rats were used in following experiments. […] The extract was suspended in saline containing 0.5% carboxymethyl cellulose. The animals were then sacrificed under ether anesthesia. The contents of sorbitol in the red blood cell, sciatic nerves, and lenses were determined enzymatically. Sorbitol was measured by a modification of the enzymatic assay procedure described in the literature (Clements, R. S. et al.; Science, 166(908), pp1007-8, 1969). 0.5 ml of protein-free filtrate of tissues was added to a reaction mixture consisting of 1.0 ml of 0.05 M glycine buffer adjusted to pH 9.4 containing 0.2 mM nicotinamide adenine dinucleotide (NAD) and 0.64 U of sorbitol dehydrogenase. Blanks untreated with the filtrate, NAD, or sorbitol dehydrogenase, were routinely run simultaneously. The relative fluorescence due to NADH was measured with an excitation wavelength of 366 nm and an emission wavelength of 452 nm. Epalrestat used in the present invention is a conventional therapeutic drug for diabetic complications.

Assay [4] concerns normal rats. In words: Oral glucose tolerance test in normal rats. The note with it: extracts 300 mg/kg. In kind it is in vivo, SD rats. The method, then:
Prior to an oral glucose tolerance test, rats were fasted for 16 hours. And then saline for control group, 250 mg/kg of metformin, one of the biguanides drug for comparison group and each 300 mg/kg of Elfvingia applanata extracts, respectively, was orally administered to each group consisting of 10 rats. Thirty minutes later, 3 g/kg of glucose was orally administered to each rat with a feeding syringe. Blood samples were collected from carotid artery at (just before the oral administration of glucose), 60, 120, and 180 mins after glucose load for glucose assay.

Broadly, the inhibition is the drop in the measured response relative to a control, in per cent. A low value points to little suppression. A word on the IC50: it is the midpoint of a concentration-inhibition curve. Read a high IC50 as weaker potency in that assay.

For the molecule `CC(/C=C1\SC(=S)N(CC(=O)O)C1=O)=C\c1ccccc1` [Epalrestat], the Plasma glucose in assay [1] worked out at 3.9 ± 0.2 g/L. Moreover, in assay [1] (vs control), the “Inhibition (%) of plasma glucose” value was 31.6%. This molecule yielded an inhibition at 0.001 µg/mL in assay [2] (concentration 0.001 μg/ml) of 35%. Also, 0.01 µg/mL produced 60.2% inhibition in assay [2] (concentration 0.01 μg/ml). Also, the inhibition at 0.1 µg/mL in assay [2] (concentration 0.1 μg/ml) came out at 100%. For the same molecule, in assay [3] (lenses, 200 mg/kg/day intragastric), the “Sorbitol in the lenses” value came to 0.38 ± 0.05 nmol/mg dry wt. The “Inhibition (%) of sorbitol accumulation in the lenses” value in assay [3] (lenses, 200 mg/kg/day) is 52.5%. In addition, in assay [3] (red blood cell, 200 mg/kg/day intragastric), the “Sorbitol in the red blood cell” value is 108.7 ± 11.6 nmol/g Hg. In assay [3] (red blood cell, 200 mg/kg/day), the “Inhibition (%) of sorbitol accumulation in the red blood cell” value was determined as 75.0%. In assay [3] (sciatic nerves, 200 mg/kg/day intragastric), the “Sorbitol in the sciatic nerves” value is 4.3 ± 0.5 nmol/mg dry wt. Also, the “Inhibition (%) of sorbitol accumulation in the sciatic nerves” value in assay [3] (sciatic nerves, 200 mg/kg/day) was 58.2%.
Turning to `CN(C)C(=N)N=C(N)N` [Metformin, metformin], the “Glucose, 1 hr” value in assay [4] (1 hr after 3 g/kg oral glucose load, metformin 250 mg/kg oral) was found to be 140.1 ± 7.0 mg/dL. Also, the “Glucose, 2hr” value in assay [4] (2 hr after 3 g/kg oral glucose load, metformin 250 mg/kg oral) was determined as 122.8 ± 1.4 mg/dL. In assay [4] (3 hr after 3 g/kg oral glucose load, metformin 250 mg/kg oral), the “Glucose, 3hr” value came out at 139.7 ± 4.5 mg/dL. The “Glucose, 0 hr” value in assay [4] (just before 3 g/kg oral glucose load, metformin 250 mg/kg oral 30 min earlier) came to 54.5 ± 2.2 mg/dL.
On to `O=C(O)CC1(CC(=O)O)CCCC1` [TMG, TetraMethylene Glutaric acid], for which the “Inhibition (%) of aldose reductase” value in assay [2] (concentration 0.1 μg/ml) came out at 40.6%; in assay [2] (concentration 1 μg/ml) it was 51.3%; in assay [2] (concentration 10 μg/ml), 76.4%. For the same molecule, in assay [2] (rat lens enzyme, pH 6.2, unit (μM) printed beside the value), the IC50 came to 0.46 µM.
